Converted amounts (≈) assume the structure as drawn.
tested on: coxsackie B3 viruses; assay: Measures of anti-coxsackie B3 viruses activity of the compounds in Vero cells; type: cell-based; conditions: half inhibitory concentration for viruses
From the text: Measures of Anti-Coxsackie B3 Viruses Activity of the Compounds The products are applied for measures of antivirus properties of Vero cells. Refer to the results of Table 3: datum of anti-coxsackie B3 viruses activities of some compounds. […] IC50 indicates half inhibitory concentration for viruses. RBV indicates triazole nucleoside, is also called ribavirin, virazole.

| Compound | IC50 [mg/L] |
| --- | --- |
| 2-(2-N-methyl-4-N- methylpiperazinyl)-1H- benzimidazole-4-(N-o- fluorophenyl)amide | 8.9 |
| O=C(Nc1ccc(O)cc1)c1cccc2[nH]c(-c3ccc(O)c(O)c3O)nc12 [2-(2,3,4-trihydroxyphenyl)-1H-benzimidazole-4-(N-p-hydroxyphenyl)amide] | 11.2 (≈ 29.7 µM) |
| CN1CCN(C)C(c2nc3c(C(=O)Nc4ccc(N)cc4)cccc3[nH]2)C1 (centres unmarked) [2-(2-N-methyl-4-N-methylpiperazinyl)-1H-benzimidazole-4-(N-p-aminophenyl)amide] | 3.5 (≈ 9.6 µM) |
| O=C(Nc1ccccc1F)c1cccc2[nH]c(-c3cnc(-c4ccccc4)nc3)nc12 [2-(2-phenyl-5-pyrimidinyl)-1H-benzimidazole-4-(N-o-fluorophenyl)amide] | 12.6 (≈ 30.8 µM) |
| O=C(Nc1ccccc1O)c1cccc2[nH]c(-c3cnc(-c4ccccc4)nc3)nc12 [2-(2-phenyl-5-pyrimidinyl)-1H-benzimidazole-4-(N-o-hydroxyphenyl)amide] | 13.2 (≈ 32.4 µM) |
| Nc1ccc(NC(=O)c2cccc3[nH]c(-c4cnc(-c5ccccc5)nc4)nc23)cc1 [2-(2-phenyl-5-pyrimidinyl)-1H-benzimidazole-4-(N-p-aminophenyl)amide] | 15.2 (≈ 37.4 µM) |
| O=C(Nc1ccccc1O)c1cccc2[nH]c(-c3cnccn3)nc12 [2-(2-pyrazinyl)-1H -benzimidazole-4-(N-o-hydroxyphenyl)amide] | 3.5 (≈ 10.6 µM) |
| O=C(Nc1ccccc1F)c1cccc2[nH]c(-c3cnccn3)nc12 [2-(2-pyrazinyl)-1H-benzimidazole-4-(N-o-fluorophenyl)amide] | 6.5 (≈ 19.5 µM) |
| Nc1ccc(NC(=O)c2cccc3[nH]c(-c4cnccn4)nc23)cc1 [2-(2-pyrazinyl)-1H-benzimidazole-4-(N-p-aminophenyl)amide] | 4.2 (≈ 12.7 µM) |
| CC(NC(=O)c1cccc2[nH]c(-c3ccccn3)nc12)C(O)c1ccc(Cl)cc1 (centres unmarked) [2-(2-pyridyl)-1H-benzimidazole-4-[N-(1-methyl-2-p-chlorophenylhydroxyethyl)]amide] | 4.115 (≈ 10.1 µM) |
| O=C(Nc1ccccc1F)c1cccc2[nH]c(-c3ncccn3)nc12 [2-(2-pyrimidinyl)-1H-benzimidazole-4-(N-o-fluorophenyl)amide] | 8.8 (≈ 26.4 µM) |
| O=C(Nc1ccccc1O)c1cccc2[nH]c(-c3ncccn3)nc12 [2-(2-pyrimidinyl)-1H-benzimidazole-4-(N-o-hydroxyphenyl)amide] | 7.8 (≈ 23.5 µM) |
| Nc1ccc(NC(=O)c2cccc3[nH]c(-c4ncccn4)nc23)cc1 [2-(2-pyrimidinyl)-1H-benzimidazole-4-(N-p-aminophenyl)amide] | 9.8 (≈ 29.7 µM) |
| O=C(Nc1ccccc1F)c1cccc2[nH]c(-c3ccc[nH]3)nc12 [2-(2-pyrrolyl)-1H-benzimidazole-4-(N-o-fluorophenyl)amide] | 9.2 (≈ 28.7 µM) |
| O=C(Nc1ccccc1F)c1cccc2[nH]c(-c3ccc4ccccc4n3)nc12 [2-(2-quinolinyl)-1H-benzimidazole-4-(N-o-fluorophenyl)amide] | 15.3 (≈ 40 µM) |
| CC(NC(=O)c1cccc2[nH]c(-c3cccs3)nc12)C(O)c1ccc(Cl)cc1 (centres unmarked) [2-(2-thienyl)-1H-benzimidazole-4-[N-(1-methyl-2-p-chlorophenylhydroxyethyl)]amide] | 5.30 (≈ 12.9 µM) |
| Cc1cc(C)c(-c2nc3c(C(=O)Nc4ccccc4O)cccc3[nH]2)[nH]1 [2-(3,5-dimethyl-2-pyrrolyl)-1H-benzimidazole-4-(N-o-hydroxyphenyl)amide] | 10.2 (≈ 29.4 µM) |
| Nc1ccc(NC(=O)c2cccc3[nH]c(-c4c[nH]c5ccccc45)nc23)cc1 [2-(3-indolyl)-1H-benzimidazole-4-(N-p-aminophenyl)amide] | 10.8 (≈ 29.4 µM) |

| Compound | IC50 [mg/L] |
| --- | --- |
| O=C(Nc1ccccc1F)c1cccc2[nH]c(-c3cccnn3)nc12 [2-(3-pyridazinyl)-1H-benzimidazole-4-(N-o-fluorophenyl)amide] | 12.3 (≈ 36.9 µM) |
| O=C(Nc1ccccc1O)c1cccc2[nH]c(-c3cccnn3)nc12 [2-(3-pyridazinyl)-1H-benzimidazole-4-(N-o-hydroxyphenyl)amide] | 15.2 (≈ 45.9 µM) |
| Nc1ccc(NC(=O)c2cccc3[nH]c(-c4cccnn4)nc23)cc1 [2-(3-pyridazinyl)-1H-benzimidazole-4-(N-p-aminophenyl)amide] | 10.2 (≈ 30.9 µM) |
| CC(NC(=O)c1cccc2[nH]c(-c3cccnc3)nc12)C(O)c1ccc(Cl)cc1 (centres unmarked) [2-(3-pyridyl)-1H-benzimidazole-4-[N-(1-methyl-2-p-chlorophenylhydroxyethyl)]amide] | 2.37 (≈ 5.82 µM) |
| Nc1ncnc(Cl)c1-c1nc2c(C(=O)Nc3ccccc3F)cccc2[nH]1 [2-(4-amino-6-chloro-5-pyrimidinyl)-1H-benzimidazole-4-(N-o-fluorophenyl)amide] | 11.3 (≈ 29.5 µM) |
| Nc1ncnc(Cl)c1-c1nc2c(C(=O)Nc3ccccc3O)cccc2[nH]1 [2-(4-amino-6-chloro-5-pyrimidinyl)-1H-benzimidazole-4-(N-o-hydroxyphenyl)amide] | 12.3 (≈ 32.3 µM) |
| Nc1ccc(NC(=O)c2cccc3[nH]c(-c4c(N)ncnc4Cl)nc23)cc1 [2-(4-amino-6-chloro-5-pyrimidinyl)-1H-benzimidazole-4-(N-p-aminophenyl)amide] | 14.1 (≈ 37.1 µM) |
| CN(C)c1ccnc(-c2nc3c(C(=O)Nc4ccc(N)cc4)cccc3[nH]2)c1 [2-(4-dimethylaminopyridyl)-1H-benzimidazole-4-(N-p-aminophenyl)amide] | 10.2 (≈ 27.4 µM) |
| COc1ccnc(-c2nc3c(C(=O)Nc4ccccc4O)cccc3[nH]2)c1 [2-(4-methoxypyridyl)-1H-benzimidazole-4-(N-o-hydroxyphenyl)amide] | 16.2 (≈ 45 µM) |
| COc1ccnc(-c2nc3c(C(=O)Nc4ccc(N)cc4)cccc3[nH]2)c1 [2-(4-methoxypyridyl)-1H-benzimidazole-4-(N-p-aminophenyl)amide] | 13.4 (≈ 37.3 µM) |
| Cc1nc(-c2nc3c(C(=O)Nc4ccccc4F)cccc3[nH]2)sc1N [2-(4-methyl-5-aminothiazolyl)-1H-benzimidazole-4-(N-o-fluorophenyl)amide] | 10.2 (≈ 27.8 µM) |
| Cc1nc(-c2nc3c(C(=O)Nc4ccc(N)cc4)cccc3[nH]2)sc1N [2-(4-methyl-5-aminothiazolyl)-1H-benzimidazole-4-(N-p-aminophenyl)amide] | 9.8 (≈ 26.9 µM) |
| Nc1ccc(-c2nc3c(C(=O)Nc4ccccc4F)cccc3[nH]2)s1 [2-(5-amino-2-thienyl)-1H-benzimidazole-4-(N-o-fluorophenyl)amide] | 3.5 (≈ 9.93 µM) |
| Cc1ccccc1NC(=O)c1cccc2[nH]c(-c3ccc(N)s3)nc12 [2-(5-amino-2-thienyl)-1H-benzimidazole-4-(N-o-methylphenyl)amide] | 8.7 (≈ 25 µM) |
| Nc1ccc(-c2nc3c(C(=O)Nc4ccc(O)cc4)cccc3[nH]2)s1 [2-(5-amino-2-thienyl)-1H-benzimidazole-4-(N-p-hydroxyphenyl)amide] | 6.5 (≈ 18.6 µM) |
| Cc1ccc(-c2nc3c(C(=O)Nc4ccccc4O)cccc3[nH]2)s1 [2-(5-methy-2-thienyl)-1H-benzimidazole-4-(N-o-hydroxyphenyl)amide] | 18.5 (≈ 52.9 µM) |
| CC(NC(=O)c1cccc2[nH]c(-c3ccc([N+](=O)[O-])s3)nc12)C(O)c1ccc(Cl)cc1 (centres unmarked) [2-(5-nitro-2-thienyl)-1H-benzimidazole-4-(N-(1-methyl-2-p-chlorophenylhydroxyethyl))-amide] | 7.12 (≈ 15.6 µM) |

— patent US8871946B2, “Benzimidazole-4-carboxamide derivatives, their preparation methods, pharmaceutical compositions and their uses” (Zhejiang Medicine Co., Ltd. Xinchang Pharmaceutical Factory, priority 2009, dated 2014)
